Publication PMC7857637, “The three NADH dehydrogenases of Pseudomonas aeruginosa: Their roles in energy metabolism and links to virulence” (PLoS ONE, 2021)

Molecular target: T1, NQR complex (pHERD28C-NQR) (Pseudomonas aeruginosa, UniProt Q9HZK7+Q9HZK8)
T1 construct: gene nqrB; complete nqr operon on pHERD28C plasmid, C-terminal His tag on NqrF, expressed in P. aeruginosa, partially purified on Ni-NTA; with Na(+)-translocating NADH-quinone reductase subunit A; Na(+)-translocating NADH-quinone reductase subunit D; Na(+)-translocating NADH-quinone reductase subunit E; Na(+)-translocating NADH-quinone reductase subunit F
T1 sequence (Q9HZK7 whole entry): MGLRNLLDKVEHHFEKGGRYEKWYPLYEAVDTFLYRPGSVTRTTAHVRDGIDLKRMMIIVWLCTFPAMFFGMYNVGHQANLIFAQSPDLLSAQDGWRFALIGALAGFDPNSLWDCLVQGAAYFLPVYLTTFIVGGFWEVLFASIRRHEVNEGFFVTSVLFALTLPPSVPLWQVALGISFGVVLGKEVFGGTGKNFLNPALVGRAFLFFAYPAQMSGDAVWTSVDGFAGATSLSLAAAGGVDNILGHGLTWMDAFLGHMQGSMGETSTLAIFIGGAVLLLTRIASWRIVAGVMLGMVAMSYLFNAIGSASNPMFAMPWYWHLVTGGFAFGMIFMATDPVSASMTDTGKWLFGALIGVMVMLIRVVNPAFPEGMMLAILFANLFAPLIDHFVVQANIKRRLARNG
T1 sequence (Q9HZK8 whole entry): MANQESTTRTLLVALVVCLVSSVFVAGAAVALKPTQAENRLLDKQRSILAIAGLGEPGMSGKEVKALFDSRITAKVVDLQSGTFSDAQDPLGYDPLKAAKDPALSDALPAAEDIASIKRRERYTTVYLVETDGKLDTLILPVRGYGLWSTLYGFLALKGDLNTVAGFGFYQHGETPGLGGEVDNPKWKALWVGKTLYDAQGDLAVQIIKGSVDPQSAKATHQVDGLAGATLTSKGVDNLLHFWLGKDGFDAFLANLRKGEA
T1 sequence (Q9HZL1 whole entry partner): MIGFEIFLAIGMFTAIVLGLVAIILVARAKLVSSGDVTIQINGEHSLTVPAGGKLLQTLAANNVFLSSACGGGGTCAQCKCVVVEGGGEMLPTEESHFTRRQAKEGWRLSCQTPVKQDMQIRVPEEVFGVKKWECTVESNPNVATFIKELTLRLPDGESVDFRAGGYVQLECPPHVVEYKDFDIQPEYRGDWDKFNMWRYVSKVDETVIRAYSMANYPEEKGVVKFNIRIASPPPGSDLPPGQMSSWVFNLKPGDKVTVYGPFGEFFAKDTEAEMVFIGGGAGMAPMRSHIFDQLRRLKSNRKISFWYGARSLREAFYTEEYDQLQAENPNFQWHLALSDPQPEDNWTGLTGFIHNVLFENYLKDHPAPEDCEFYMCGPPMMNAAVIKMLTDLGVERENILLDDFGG
T1 sequence (Q9HZK6 whole entry partner): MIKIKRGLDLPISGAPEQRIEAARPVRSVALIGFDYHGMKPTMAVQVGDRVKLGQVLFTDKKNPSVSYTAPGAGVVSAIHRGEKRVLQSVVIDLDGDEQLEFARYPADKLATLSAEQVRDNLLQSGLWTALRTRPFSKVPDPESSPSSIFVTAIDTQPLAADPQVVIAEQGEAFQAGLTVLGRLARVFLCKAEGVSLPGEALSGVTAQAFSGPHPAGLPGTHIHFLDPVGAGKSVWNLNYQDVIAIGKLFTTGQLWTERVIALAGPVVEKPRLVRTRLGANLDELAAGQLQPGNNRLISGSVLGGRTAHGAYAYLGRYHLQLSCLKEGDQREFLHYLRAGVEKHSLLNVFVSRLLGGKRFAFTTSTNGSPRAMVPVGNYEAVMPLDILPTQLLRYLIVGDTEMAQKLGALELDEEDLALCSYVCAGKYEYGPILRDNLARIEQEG
T1 sequence (Q9HZK9 whole entry partner): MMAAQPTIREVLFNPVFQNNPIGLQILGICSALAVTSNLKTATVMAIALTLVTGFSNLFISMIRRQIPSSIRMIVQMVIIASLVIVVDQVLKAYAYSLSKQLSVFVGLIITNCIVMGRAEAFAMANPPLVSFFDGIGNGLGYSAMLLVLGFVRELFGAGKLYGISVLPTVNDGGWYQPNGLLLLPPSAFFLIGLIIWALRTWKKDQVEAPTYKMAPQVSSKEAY
T1 sequence (Q9HZL0 whole entry partner): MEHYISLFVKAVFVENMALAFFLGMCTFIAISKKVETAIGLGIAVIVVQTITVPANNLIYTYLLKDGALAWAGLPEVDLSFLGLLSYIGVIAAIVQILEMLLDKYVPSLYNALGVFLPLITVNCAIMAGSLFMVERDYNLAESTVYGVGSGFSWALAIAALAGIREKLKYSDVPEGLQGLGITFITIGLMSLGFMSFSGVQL
Assay: in-gel flavin fluorescence of the partially purified complex (SDS gel under UV)
Format: binding
Details: covalent (retained on SDS gel); bands of subunits NqrB and NqrC

Cc1cc2nc3c(=O)[nH]c(=O)nc-3n(C[C@H](O)[C@H](O)[C@H](O)COP(=O)(O)O)c2cc1C [FMN]
in-gel flavin fluorescence of the partially purified complex (SDS gel under UV): two fluorescent bands characteristic of the FMN cofactors of the NqrB and NqrC subunits
